Our source for the IC50 values is patent US11590139B2, “Substituted aminopurine compounds, compositions thereof, and methods of treatment therewith” (Signal Pharmaceuticals, LLC, priority 2014, dated 2023).

Some results are limits rather than exact numbers.

One assay deals with Lox-IMVI melanoma cell line. Kind of assay: Lox-IMVI anti-proliferative assay (growth inhibition, Cell Titer-Glo). The format is cell-based, human. Particulars: Homo sapiens; IC50 activity level in the cell-based Lox-IMVI anti-proliferative assay; read-out: Activity. An outline of the steps:
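Luminescence from cellular ATP measured viability at compound addition and again after 72 h of exposure (37 °C, 5% CO2, RPMI + 10% FBS). Doses spanned 0.5 nM to 10 μM in ten 3-fold steps with 0.2% DMSO. Values were fitted as % of DMSO-treated cells by sigmoidal dose-response.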
(In general: Cellular ATP, detected with luciferase, serves as a proxy for viable cell number.)
For `NC(=O)[C@H]1CC[C@@H](n2c(Nc3c(F)cc(F)cc3Cl)nc3cnc(NC4CCC(F)(F)CC4)nc32)CC1` [Example 185, (1s,4s)-4-(8-(2-chloro-4,6-difluorophenylamino)-2-(4,4-difluorocyclohexylamino)-9H-purin-9-yl)cyclohexanecarboxamide], the IC50 is under 250 nM.

On to `NC(=O)[C@H]1CC[C@@H](n2c(Nc3c(F)cc(Cl)cc3Cl)nc3cnc(NC4CCCC4)nc32)CC1` [Example 122, (1s,4s)-4-(2-(cyclopentylamino)-8-(2,4-dichloro-6-fluorophenylamino)-9H-purin-9-yl)cyclohexanecarboxamide], for which the IC50 is 250 to 500 nM. Take `NC(=O)[C@H]1CC[C@@H](n2c(Nc3ccc(Cl)cc3Cl)nc3cnc(NC4CCCC4)nc32)CC1` [Example 94, (1s,4s)-4-(2-(cyclopentylamino)-8-(2,4-dichlorophenylamino)-9H-purin-9-yl)cyclohexanecarboxamide]: the IC50 is over 1000 nM. The same measure, in the same setting: as for `NC(=O)[C@H]1CC[C@@H](n2c(Nc3cc(F)c(Cl)cc3Cl)nc3cnc(NC4CCOCC4)nc32)CC1` [Example 105, (1s,4s)-4-(8-(2,4-dichloro-5-fluorophenylamino)-2-(tetrahydro-2H-pyran-4-ylamino)-9H-purin-9-yl)cyclohexanecarboxamide], the figure is over 1000 nM.

For the compound `NC(=O)[C@H]1CC[C@@H](n2c(Nc3c(F)cccc3F)nc3cnc(N[C@@H]4CCOC[C@H]4F)nc32)CC1` [Example 275, (1S,4s)-4-(8-(2,6-difluorophenylamino)-2-((3S,4R)-3-fluorotetrahydro-2H-pyran-4-ylamino)-9H-purin-9-yl)cyclohexanecarboxamide], the IC50 is 250 to 500 nM. The same measure, in the same setting: in the case of `NC(=O)[C@H]1CC[C@@H](n2c(Nc3c(Cl)cccc3Cl)nc3cnc(NC4CCC(F)(F)CC4)nc32)CC1` [Example 236, (1s,4s)-4-(8-(2,6-dichlorophenylamino)-2-(4,4-difluorocyclohexylamino)-9H-purin-9-yl)cyclohexanecarboxamide] it was 250 to 500 nM. Still for that read-out and setting: as for `C[C@H](CO)Nc1ncc2nc(Nc3c(F)cc(Cl)cc3F)n([C@H]3CC[C@@H](C(N)=O)CC3)c2n1` [Example 132, (1S,4s)-4-(8-(4-chloro-2,6-difluorophenylamino)-2-((R)-1-hydroxypropan-2-ylamino)-9H-purin-9-yl)cyclohexanecarboxamide], the figure is over 1000 nM; as for `NC(=O)[C@H]1CC[C@@H](n2c(Nc3c(F)cc(F)cc3F)nc3cnc(N[C@H]4CCOC[C@@H]4F)nc32)CC1` [Example 277, (1R,4s)-4-(2-((3R,4S)-3-fluorotetrahydro-2H-pyran-4-ylamino)-8-(2,4,6-trifluorophenylamino)-9H-purin-9-yl)cyclohexanecarboxamide], over 1000 nM. On the same count and under the same terms, as for `NC(=O)[C@H]1CC[C@@H](n2c(Nc3cccc(Cl)c3F)nc3cnc(NC4CCCC4)nc32)CC1` [Example 140, (1s,4s)-4-(8-(3-chloro-2-fluorophenylamino)-2-(cyclopentylamino)-9H-purin-9-yl)cyclohexanecarboxamide], the figure is over 1000 nM; as for `NC(=O)[C@H]1CC[C@@H](n2c(Nc3c(Cl)cc(F)cc3Cl)nc3cnc(NC4CC(F)(F)C4)nc32)CC1` [Example 231, (1s,4s)-4-(8-(2,6-dichloro-4-fluorophenylamino)-2-(3,3-difluorocyclobutylamino)-9H-purin-9-yl)cyclohexanecarboxamide], over 1000 nM; as for `NC(=O)[C@H]1CC[C@@H](n2c(Nc3ccc(Cl)c(F)c3F)nc3cnc(N[C@H]4CCC[C@@H](O)C4)nc32)CC1` [Example 375, (1R,4s)-4-(8-(4-chloro-2,3-difluorophenylamino)-2-((1S,3R)-3-hydroxycyclohexylamino)-9H-purin-9-yl)cyclohexanecarboxamide], over 1000 nM. On to `NC(=O)[C@H]1CC[C@@H](n2c(Nc3c(F)cc(Cl)cc3Cl)nc3cnc(N[C@H]4CCOC4)nc32)CC1` [Example 244, (1R,4s)-4-(8-(2,4-dichloro-6-fluorophenylamino)-2-((S)-tetrahydrofuran-3-ylamino)-9H-purin-9-yl)cyclohexanecarboxamide], for which the IC50 lay in the range of 500 to 1000 nM. Same read-out and setting: in the case of `C[C@H](CO)Nc1ncc2nc(Nc3c(F)cc(Cl)cc3Cl)n([C@H]3CC[C@@H](C(N)=O)CC3)c2n1` [Example 133, (1S,4s)-4-(8-(2,4-dichloro-6-nuorophenylamino)-2-((R)-1-hydroxypropan-2-ylamino)-9H-purin-9-yl)cyclohexanecarboxamide] it was 500 to 1000 nM; in that of `CS(=O)(=O)N1CCC(Nc2ncc3nc(Nc4ccc(Cl)cc4Cl)n([C@H]4CC[C@@H](C(N)=O)CC4)c3n2)CC1` [Example 299, (1s,4s)-4-(8-(2,4-dichlorophenylamino)-2-(1-(methylsulfonyl)piperidin-4-ylamino)-9H-purin-9-yl)cyclohexanecarboxamide], over 1000 nM.

Still in this assay, the particulars now being: Homo sapiens; Lox-IMVI anti-proliferative assay, IC50 activity level; read-out: Activity.
`NC(=O)[C@H]1CC[C@@H](n2c(Nc3c(Cl)cc(C(F)(F)F)cc3Cl)nc3cnc(N[C@@H]4CCOC4)nc32)CC1` [Example 523, (1S,4s)-4-(8-(2,6-dichloro-4-(trifluoromethyl)phenylamino)-2-((R)-tetrahydrofuran-3-ylamino)-9H-purin-9-yl)cyclohexanecarboxamide]: the IC50 was over 1000 nM. On the same count and under the same terms, in the case of `N#Cc1cc(F)c(Nc2nc3cnc(N[C@@H]4CCC[C@H](O)C4)nc3n2[C@H]2CC[C@@H](C(N)=O)CC2)c(F)c1` [Example 457, (1S,4s)-4-(8-(4-cyano-2,6-difluorophenylamino)-2-((1R,3S)-3-hydroxycyclohexylamino)-9H-purin-9-yl)cyclohexanecarboxamide] it was over 1000 nM; in that of `NC(=O)[C@H]1CC[C@@H](n2c(Nc3c(Cl)cccc3Cl)nc3cnc(N[C@@H]4CCCC[C@H](O)C4)nc32)CC1` [Example 435, (1S,4s)-4-(8-(2,6-dichlorophenylamino)-2-((1R,3S)-3-hydroxycycloheptylamino)-9H-purin-9-yl)cyclohexanecarboxamide], over 1000 nM. Regarding `C[C@]1(C(N)=O)CC[C@@H](n2c(Nc3c(Cl)cc(C#N)cc3Cl)nc3cnc(NC4CCCC4)nc32)CC1` [Example 561, (1s,4s)-4-(2-(cyclopentylamino)-8-(2,6-dichloro-4-cyanophenylamino)-9H-purin-9-yl)-1-methylcyclohexanecarboxamide], the IC50 was under 250 nM.

Regarding `C[C@]1(C(N)=O)CC[C@@H](n2c(Nc3c(F)cc(C#N)cc3Cl)nc3cnc(NC4CCCC4)nc32)CC1` [Example 575, (1s,4s)-4-(8-(2-chloro-4-cyano-6-fluorophenylamino)-2-(cyclopentylamino)-9H-purin-9-yl)-1-methylcyclohexanecarboxamide], the IC50 was under 250 nM.

Staying with this assay, now noted: Homo sapiens; Lox-IMVI melanoma cell line, anti-proliferative assay; read-out: Activity (IC50 activity level).
Turning to `CC(C)N1CCC[C@@H](Nc2ncc3nc(Nc4c(Cl)cc(C#N)cc4Cl)n([C@H]4CC[C@@H](C(N)=O)CC4)c3n2)C1` [Example 739, (1S,4s)-4-(8-(2,6-dichloro-4-cyanophenylamino)-2-((R)-1-isopropylpiperidin-3-ylamino)-9H-purin-9-yl)cyclohexanecarboxamide], the IC50 is over 1000 nM. In the case of `N#Cc1cc(F)c(Nc2nc3cnc(N[C@H]4CCC[C@@H](O)C4)nc3n2[C@H]2CC[C@@H](C(N)=O)CC2)c(Cl)c1` [Example 687, (1R,4s)-4-(8-(2-chloro-4-cyano-6-fluorophenylamino)-2-((1S,3R)-3-hydroxycyclohexylamino)-9H-purin-9-yl)cyclohexanecarboxamide], the IC50 was over 1000 nM.

`N#Cc1cc(F)c(Nc2nc3cnc(N[C@@H]4CCCN(C(=O)Nc5ccccc5)C4)nc3n2[C@H]2CC[C@@H](C(N)=O)CC2)c(Cl)c1` [Example 785, (R)-3-(9-((1s,4S)-4-carbamoylcyclohexyl)-8-(2-chloro-4-cyano-6-fluorophenylamino)-9H-purin-2-ylamino)-N-phenylpiperidine-1-carboxamide]: the IC50 is over 1000 nM. Still for that read-out and setting: as for `Cc1ccc(S(=O)(=O)N2CCC[C@@H](Nc3ncc4nc(Nc5c(F)cc(Cl)cc5F)n([C@H]5CC[C@@H](C(N)=O)CC5)c4n3)C2)cc1` [Example 792, (1S,4s)-4-(8-(4-chloro-2,6-difluorophenylamino)-2-((R)-1-tosylpiperidin-3-ylamino)-9H-purin-9-yl)cyclohexanecarboxamide], the figure is over 1000 nM; as for `N#Cc1ccc(Nc2nc3cnc(NC4CCC(F)(F)CC4)nc3n2[C@H]2CC[C@@H](C(N)=O)CC2)c(Cl)c1Cl` [Example 695, (1s,4s)-4-(8-(2,3-dichloro-4-cyanophenylamino)-2-(4,4-difluorocyclohexylamino)-9H-purin-9-yl)cyclohexanecarboxamide], over 1000 nM. For the compound `C[C@]1(C(N)=O)CC[C@@H](n2c(Nc3c(Cl)cc(Cl)cc3Cl)nc3cnc(N[C@H]4CCC[C@H](O)C4)nc32)CC1` [Example 611, (1R,4s)-4-(2-((1S,3S)-3-hydroxycyclohexylamino)-8-(2,4,6-trichlorophenylamino)-9H-purin-9-yl)-1-methylcyclohexanecarboxamide], the IC50 is under 250 nM. Same read-out and setting: as for `CC(=O)N1CCC[C@@H](Nc2ncc3nc(Nc4c(F)cc(Cl)cc4Cl)n([C@H]4CC[C@@H](C(N)=O)CC4)c3n2)C1` [Example 711, (1S,4s)-4-(2-((R)-1-acetylpiperidin-3-ylamino)-8-(2,4-dichloro-6-fluorophenylamino)-9H-purin-9-yl)cyclohexanecarboxamide], the figure is over 1000 nM; as for `C[C@]1(C(N)=O)CC[C@@H](n2c(Nc3c(Cl)cc(Cl)cc3Cl)nc3cnc(N[C@H]4CCC[C@@H](O)C4)nc32)CC1` [Example 627, (1R,4s)-4-(2-((1S,3R)-3-hydroxycyclohexylamino)-8-(2,4,6-trichlorophenylamino)-9H-purin-9-yl)-1-methylcyclohexanecarboxamide], under 250 nM.
